# Measured values from patent US11685732B2, “MYST family histone acetyltransferase inhibitors” (Epizyme, Inc., priority 2017, dated 2023).
# Experiments:
# KAT-6A = KAT-6A (Homo sapiens (Human), UniProt Q92794); assay: KAT-6A biochemical inhibition assay (SAMDI mass spectrometry)
# Summary of the method: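 Enzyme (12.5 nM final) pre-incubated with serially diluted compounds (2% DMSO final) in 50 mM Tris pH 8.0 with Tween20, gelatin and 1 mM DTT. Reaction started with 1 μM peptide substrate and 1 μM acetyl-CoA, run 90 min at 25 °C, quenched with 0.5% formic acid, read by SAMDI-TOF mass spectrometry; IC50 derived.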
# KAT-7 = KAT-7 (Homo sapiens (Human), UniProt O95251); assay: KAT-7 biochemical inhibition assay (SAMDI mass spectrometry)
# KAT-7, sequence (O95251 other isoform, or with tags, fused parts or gaps): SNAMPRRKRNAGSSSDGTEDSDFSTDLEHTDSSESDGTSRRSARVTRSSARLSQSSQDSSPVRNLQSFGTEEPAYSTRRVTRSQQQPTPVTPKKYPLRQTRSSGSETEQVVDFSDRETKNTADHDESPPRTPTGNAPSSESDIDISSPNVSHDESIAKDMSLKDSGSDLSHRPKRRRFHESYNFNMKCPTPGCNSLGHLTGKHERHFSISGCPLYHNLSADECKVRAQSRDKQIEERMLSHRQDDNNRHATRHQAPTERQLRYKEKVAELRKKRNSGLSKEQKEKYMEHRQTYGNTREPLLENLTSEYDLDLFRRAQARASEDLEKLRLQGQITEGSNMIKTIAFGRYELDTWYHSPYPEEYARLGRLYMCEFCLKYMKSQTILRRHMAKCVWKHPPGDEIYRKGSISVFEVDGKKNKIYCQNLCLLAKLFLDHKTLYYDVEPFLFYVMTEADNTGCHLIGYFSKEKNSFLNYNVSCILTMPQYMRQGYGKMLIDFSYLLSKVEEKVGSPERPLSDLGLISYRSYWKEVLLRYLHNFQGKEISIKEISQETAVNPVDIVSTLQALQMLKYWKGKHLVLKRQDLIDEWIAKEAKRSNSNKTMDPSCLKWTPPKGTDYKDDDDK
# Summary of the method: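 KAT-7 (6 nM) was pre-incubated with serially diluted compound (2% DMSO) in Tris pH 8.0 with DTT. Reaction with 1 μM peptide and 2 μM acetyl-CoA ran 120 min at 25 °C and was stopped with 0.5% formic acid. Acetylation was read by SAMDI-TOF mass spectrometry to give IC50.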
# KAT-8 = KAT-8 (Homo sapiens (Human), UniProt Q9H7Z6); assay: KAT-8 biochemical inhibition assay (SAMDI mass spectrometry)
# KAT-8, sequence (Q9H7Z6 other isoform, or with tags, fused parts or gaps): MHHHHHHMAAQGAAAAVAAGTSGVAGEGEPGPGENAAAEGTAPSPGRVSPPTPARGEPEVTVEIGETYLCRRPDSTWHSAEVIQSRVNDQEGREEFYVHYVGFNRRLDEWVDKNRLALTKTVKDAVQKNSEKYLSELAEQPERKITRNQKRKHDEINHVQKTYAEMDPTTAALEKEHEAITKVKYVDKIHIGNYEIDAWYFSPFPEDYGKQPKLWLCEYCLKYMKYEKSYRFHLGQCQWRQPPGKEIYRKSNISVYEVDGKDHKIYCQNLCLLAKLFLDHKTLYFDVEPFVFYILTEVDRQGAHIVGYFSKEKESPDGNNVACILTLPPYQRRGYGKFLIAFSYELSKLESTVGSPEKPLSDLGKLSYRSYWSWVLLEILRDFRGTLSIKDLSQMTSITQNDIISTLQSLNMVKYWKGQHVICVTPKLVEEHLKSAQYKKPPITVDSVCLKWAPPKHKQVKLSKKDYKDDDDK
# Summary of the method: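 Compounds in 2% DMSO pre-incubated with 12.5 nM enzyme in 50 mM Tris pH 8.0 with Tween20, gelatin and 1 mM DTT. Then 1 μM peptide and 5 μM acetyl-CoA were added, 90 min at 25 °C; formic acid stop and SAMDI-TOF mass spectrometry for IC50.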
# KAT-5 = KAT-5 (Homo sapiens (Human), UniProt Q92993); assay: KAT-5 biochemical inhibition assay (SAMDI mass spectrometry)
# KAT-5, sequence (Q92993 other isoform, or with tags, fused parts or gaps): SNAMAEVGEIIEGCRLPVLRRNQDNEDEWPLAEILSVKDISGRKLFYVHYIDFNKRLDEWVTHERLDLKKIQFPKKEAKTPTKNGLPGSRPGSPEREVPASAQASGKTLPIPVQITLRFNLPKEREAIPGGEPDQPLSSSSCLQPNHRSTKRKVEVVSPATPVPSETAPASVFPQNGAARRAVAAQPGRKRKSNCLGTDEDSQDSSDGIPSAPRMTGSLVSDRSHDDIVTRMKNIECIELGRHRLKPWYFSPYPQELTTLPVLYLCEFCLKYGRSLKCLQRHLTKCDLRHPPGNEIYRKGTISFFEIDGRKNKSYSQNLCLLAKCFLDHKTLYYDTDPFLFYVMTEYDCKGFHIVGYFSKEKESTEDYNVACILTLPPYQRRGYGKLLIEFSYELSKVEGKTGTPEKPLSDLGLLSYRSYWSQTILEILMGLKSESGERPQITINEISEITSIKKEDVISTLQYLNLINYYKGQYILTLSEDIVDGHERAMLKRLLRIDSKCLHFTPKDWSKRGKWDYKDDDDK
# Summary of the method: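 KAT-5 at 9 nM final was preincubated with serially diluted compound (2% DMSO) in 50 mM Tris pH 8.0 with 1 mM DTT. Reaction ran with 1 μM peptide substrate and 0.5 μM acetyl-CoA for 90 min at 25° C, was quenched with 0.5% formic acid, and was read by SAMDI-TOF mass spectrometry.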
# KAT-6A, sequence (Q92794 other isoform, or with tags, fused parts or gaps): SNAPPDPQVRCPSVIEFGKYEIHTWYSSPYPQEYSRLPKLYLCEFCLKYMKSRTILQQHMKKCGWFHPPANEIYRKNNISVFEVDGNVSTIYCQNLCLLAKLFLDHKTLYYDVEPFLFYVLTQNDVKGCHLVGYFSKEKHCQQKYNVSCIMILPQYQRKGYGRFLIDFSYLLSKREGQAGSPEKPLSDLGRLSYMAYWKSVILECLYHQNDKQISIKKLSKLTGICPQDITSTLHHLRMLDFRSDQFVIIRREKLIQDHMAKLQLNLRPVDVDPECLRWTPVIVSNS
Compound,IC50 (KAT-6A),IC50 (KAT-7),IC50 (KAT-8),IC50 (KAT-5)
Cn1cnc(-c2cc(Cl)c(F)c(C(=O)NNS(=O)(=O)C[C@H]3CC[C@H](NC(=O)c4cccnc4)CC3)c2)c1 [Compound I-241],< 10 µM,< 10 µM,10 to 50 µM,< 10 µM
Cn1cnc(-c2cc(Cl)c(F)c(C(=O)NNS(=O)(=O)c3ccc(=O)[nH]c3)c2)c1 [Compound I-381],< 10 µM,< 10 µM,10 to 50 µM,10 to 50 µM
Cc1cc(-c2cn(C(C)C)cn2)cc(C(=O)NNS(=O)(=O)C2CCCCC2)c1F [Compound I-139],> 100 µM,< 10 µM,> 100 µM,10 to 50 µM
CN(C(=O)OC(C)(C)C)c1ccc(S(=O)(=O)NNC(=O)c2cc(-c3cn(C)cn3)cc(Cl)c2F)cc1 [Compound I-377],10 to 50 µM,< 10 µM,10 to 50 µM,10 to 50 µM
Cn1cnc(-c2cc(Cl)c(F)c(C(=O)NNS(=O)(=O)C[C@H]3CC[C@@H](N(C)C(=O)OC(C)(C)C)CC3)c2)c1 [Compound I-331],10 to 50 µM,< 10 µM,10 to 50 µM,< 10 µM
CN(C)C(=O)N(C)[C@H]1CC[C@@H](CS(=O)(=O)NNC(=O)c2cc(-c3cn(C)cn3)cc(Cl)c2F)CC1 [Compound I-365],< 10 µM,< 10 µM,10 to 50 µM,< 10 µM
Cn1cnc(-c2cc(Cl)c(F)c(C(=O)NNS(=O)(=O)CC3CCC4CCC3N4)c2)c1 (stereo not shown) [Compound I-251],10 to 50 µM,< 10 µM,10 to 50 µM,10 to 50 µM
Cc1ncc(-c2cc(Cl)c(F)c(C(=O)NNS(=O)(=O)CC3CCOCC3)c2)n1C [Compound I-30],> 100 µM,> 100 µM,> 100 µM,> 100 µM
COCCn1cc(S(=O)(=O)NNC(=O)c2cc(-c3cn(C)cn3)cc(Cl)c2F)cn1 [Compound I-212],10 to 50 µM,< 10 µM,10 to 50 µM,10 to 50 µM
Cn1cc(-c2cc(Cl)c(F)c(C(=O)NNS(=O)(=O)C3CCOCC3)c2)nc1Cl [Compound I-8],10 to 50 µM,10 to 50 µM,> 100 µM,> 100 µM
Cn1cnc(-c2cc(Cl)c(F)c(C(=O)NNS(=O)(=O)c3cscn3)c2)c1 [Compound I-304],< 10 µM,< 10 µM,10 to 50 µM,< 10 µM
Cc1cc(-c2cn(C)cn2)cc(C(=O)NNS(=O)(=O)CC2CCCNC2)c1F (stereo not shown) [Compound I-133],> 100 µM,< 10 µM,> 100 µM,> 100 µM
CCNC(=O)N1[C@H]2CC[C@H](CS(=O)(=O)NNC(=O)c3cc(-c4cn(C)cn4)cc(Cl)c3F)[C@@H]1CC2 [Compound I-265],< 10 µM,< 10 µM,10 to 50 µM,< 10 µM
Cn1cnc(-c2cc(Cl)c(F)c(C(=O)NNS(=O)(=O)c3c(F)cccc3F)c2)c1 [Compound I-378],< 10 µM,< 10 µM,10 to 50 µM,< 10 µM
CNc1ccc(S(=O)(=O)NNC(=O)c2cc(-c3cn(C)cn3)cc(Cl)c2F)cc1 [Compound I-382],< 10 µM,< 10 µM,> 100 µM,10 to 50 µM
Cn1cnc(-c2cc(Cl)c(F)c(C(=O)NNS(=O)(=O)C3CCC3)c2)c1 [Compound I-12],50 to 100 µM,< 10 µM,> 100 µM,50 to 100 µM

# Other lines, results leading:
IC50 (KAT-6A),IC50 (KAT-7),IC50 (KAT-8),IC50 (KAT-5),Compound
< 10 µM,< 10 µM,10 to 50 µM,< 10 µM,Cn1cnc(-c2cc(Cl)c(F)c(C(=O)NNS(=O)(=O)C[C@H]3CCC[C@@H](O)C3)c2)c1 [Compound I-300]
< 10 µM,< 10 µM,< 10 µM,< 10 µM,Cn1cnc(-c2cc(Cl)c(F)c(C(=O)NNS(=O)(=O)CC3CC4CCC3C4)c2)c1 (stereo not shown) [Compound I-308]
< 10 µM,< 10 µM,10 to 50 µM,< 10 µM,COCC(=O)N1CCCC(CS(=O)(=O)NNC(=O)c2cc(-c3cn(C)cn3)cc(Cl)c2F)C1 (stereo not shown) [Compound I-35]
< 10 µM,< 10 µM,10 to 50 µM,10 to 50 µM,Cn1cnc(-c2cc(Cl)c(F)c(C(=O)NNS(=O)(=O)CC3CN(S(=O)(=O)C4CC4)C3)c2)c1 [Compound I-185]
< 10 µM,< 10 µM,10 to 50 µM,< 10 µM,CCS(=O)(=O)N1CCC(CS(=O)(=O)NNC(=O)c2cc(-c3cn(C)cn3)cc(Cl)c2F)C1 (stereo not shown) [Compound I-75]
< 10 µM,< 10 µM,10 to 50 µM,10 to 50 µM,CCS(=O)(=O)N1CC(CS(=O)(=O)NNC(=O)c2cc(-c3cn(C)cn3)cc(Cl)c2F)C1 [Compound I-164]
< 10 µM,< 10 µM,10 to 50 µM,< 10 µM,CNC(=O)N1CCCC(CS(=O)(=O)NNC(=O)c2cc(-c3cn(C)cn3)cc(Cl)c2F)C1 (stereo not shown) [Compound I-191]
< 10 µM,< 10 µM,10 to 50 µM,< 10 µM,CC1CCCCC1CS(=O)(=O)NNC(=O)c1cc(-c2cn(C)cn2)cc(Cl)c1F (stereo not shown) [Compound I-335]
< 10 µM,< 10 µM,10 to 50 µM,< 10 µM,CCS(=O)(=O)N1CCCC(CS(=O)(=O)NNC(=O)c2cc(-c3cn(C)cn3)cc(Cl)c2F)C1 (stereo not shown) [Compound I-82]
< 10 µM,< 10 µM,10 to 50 µM,< 10 µM,Cn1cnc(-c2cc(Cl)c(F)c(C(=O)NNS(=O)(=O)CC3CCC3)c2)c1 [Compound I-31]
10 to 50 µM,< 10 µM,10 to 50 µM,< 10 µM,CNC(=O)N1CCC(CS(=O)(=O)NNC(=O)c2cc(-c3cn(C)cn3)cc(Cl)c2F)C1 (stereo not shown) [Compound I-78]
< 10 µM,< 10 µM,10 to 50 µM,< 10 µM,CCNC(=O)NC1CCC(CS(=O)(=O)NNC(=O)c2cc(-c3cn(C)cn3)cc(Cl)c2F)C1 (stereo not shown) [Compound I-286]
< 10 µM,< 10 µM,10 to 50 µM,10 to 50 µM,CCCS(=O)(=O)N1CC(CS(=O)(=O)NNC(=O)c2cc(-c3cn(C)cn3)cc(Cl)c2F)C1 [Compound I-178]
< 10 µM,< 10 µM,10 to 50 µM,< 10 µM,Cn1cnc(-c2cc(Cl)c(F)c(C(=O)NNS(=O)(=O)CC3CCCN(S(=O)(=O)C4CC4)C3)c2)c1 (stereo not shown) [Compound I-86]
< 10 µM,< 10 µM,10 to 50 µM,< 10 µM,Cn1cnc(-c2cc(Cl)c(F)c(C(=O)NNS(=O)(=O)C[C@H]3C[C@H]4CC[C@@H]3O4)c2)c1 [Compound I-298]
< 10 µM,< 10 µM,10 to 50 µM,< 10 µM,CCCS(=O)(=O)N1CCCC(CS(=O)(=O)NNC(=O)c2cc(-c3cn(C)cn3)cc(Cl)c2F)C1 (stereo not shown) [Compound I-94]
< 10 µM,< 10 µM,> 100 µM,< 10 µM,Cn1cnc(-c2cc(Cl)c(F)c(C(=O)NNS(=O)(=O)CC3CCOCC3)c2)c1 [Compound I-1]
< 10 µM,< 10 µM,10 to 50 µM,< 10 µM,Cn1cnc(-c2cc(Cl)c(F)c(C(=O)NNS(=O)(=O)CC3CCCN(C(N)=O)C3)c2)c1 (stereo not shown) [Compound I-215]
